Here are results for four molecules from patent publication US6448268B1, “Aryl-{4-fluoro-4-[(2-pyridin-2-yl-ethylamino)-methyl]-piperidin-1-yl}-methanone derivatives as 5-ht1 receptor antagonists” (Pierre Fabre Medicament, priority 1998, dated 2002).

Where a name gives a salt, the structure may show the parent alone.

Data set [1] concerns the target T1, 5-HT1A receptor (Rattus norvegicus, UniProt P19327).
T1 sequence (P19327 1-422): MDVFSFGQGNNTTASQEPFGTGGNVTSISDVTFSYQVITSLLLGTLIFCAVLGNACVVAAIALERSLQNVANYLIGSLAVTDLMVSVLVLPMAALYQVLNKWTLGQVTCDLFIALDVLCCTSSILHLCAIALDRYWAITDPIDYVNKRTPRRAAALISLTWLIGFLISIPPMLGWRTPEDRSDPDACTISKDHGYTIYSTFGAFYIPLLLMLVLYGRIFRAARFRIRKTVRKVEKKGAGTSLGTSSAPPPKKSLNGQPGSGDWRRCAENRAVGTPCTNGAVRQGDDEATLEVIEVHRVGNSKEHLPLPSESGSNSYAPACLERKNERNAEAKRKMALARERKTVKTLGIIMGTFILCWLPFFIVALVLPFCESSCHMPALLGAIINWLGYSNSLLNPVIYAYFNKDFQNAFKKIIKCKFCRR
Briefly: 5-HT1A receptor agonist activity in vivo: lower lip retraction (LLR) after oral administration. Also noted: Male Sprague Dawley rats (ICO:OFAD [IOPS], Iffa Credo, France); from tissue; host or cells: whole animal, male Sprague Dawley rats, oral dosing. As to conditions: rats, observed t55 to t65 min, doses as base weight, read-out: LLR p.o. ED50. From the text: 3—Evaluation of the 5-HT1A Receptor Agonist Activity of the Compounds of the Invention In Vivo.
Male Sprague Dawley rats (ICO:OFAD [IOPS], Iffa Credo, France), weighing 160-180 g on arrival and 180-200 g at the start of the tests, are used. The animals are placed in quarantine for 4 to 8 days with free access to standardized laboratory food, before being used in the experiments. The animals are housed individually in plastic cages on cage holders (28 cm×21 cm×18 cm) with a grille floor (RC Iffa Credo), 24 hours before the tests. By means of an automatic dispenser, water filtered through a 0.22 μm filter is freely available. The quarantine area and the experiment laboratory are air conditioned (temperature: 22±1° C.; relative humidity: 55±5%) and illuminated from 7 a.m. to 7 p.m. All the rats are treated according to the ethics for laboratory animals (Guide for the Care and Use of Laboratory Animals, U.S. Department of Agriculture, Public Health Service, National Institutes of Health publication No. 85-23, Revised 1985) and the protocol (No. 15) is carried out in accordance with the recommendations of the local research animals ethics committee. […]
The behavior of the animal is observed for a period of 10 minutes each, centered at t60 minutes, after oral administration. […] The products are administered in a volume of 10 ml/kg and the doses are expressed as base weight. […]

The target of data set [2] is T1, 5-HT1A receptor. Briefly: Affinity for 5-HT1A receptors by displacement of (3H)8-OH-DPAT. The data set is classed as binding. Also noted: from tissue; host or cells: rat cerebral cortex membrane homogenate. As to conditions: for Ki: rat cerebral cortex, (3H)8-OH-DPAT displacement, read-out: pKi 5-HT1A (converted); for Selectivity 5-HT1A/D2: ratio of the affinity constants (Ki) D2/Ki (5-HT1A). How it is done: 1—Measurement of the Affinity of the Compounds of the Invention for the 5-HT1A Receptors
The in vitro affinity of the compounds of the invention for 5-HT1A receptors was determined by measuring the displacement of (^3H)8-OH-DPAT (TRK 850; 160-240 Ci/mmol).
The study of the binding to the 5-HT1A receptor is carried out as described by Sleight and Peroutka (Naunyn-Schmiedeberg's Arch. Pharmaco., 1991, 343, 106). Rat cerebral cortices are used for these experiments. After thawing the brain in 50 mmol Tris-HCl buffer pH=7.40 at 25° C., the cerebral cortex is removed and homogenized in 20 volumes of buffer maintained at 4°C. The homogenate is centrifuged at 39,000×g for 10 minutes and the centrifugation pellet is suspended in the same volume of buffer and centrifuged again. After resuspending under the same conditions, the homogenate is incubated for 10 minutes at 37° C. and then centrifuged again. The final pellet is suspended in cold 50 mmol Tris-HCl reaction buffer, pH=7.40 at 25° C., containing 10 mmol of pargyline, 4 mmol of CaCl2 and 0.10% ascorbic acid. The final concentration of tissue in the incubation medium is 10 mg/tube.
The reaction tubes contain 0.10 ml of (^3H)8-OH-DPAT ([…]), 0.10 ml of test product 6-7 concentrations and 0.80 ml of tissue. The nonspecific binding is defined using 10 mmol of 5-HT. The reaction tubes are incubated at 23° C. for 30 minutes and their contents are then rapidly filtered under vacuum through Whatman GF/B filters and the tubes are rinsed with twice 5 ml of 50 mmol Tris-HCl buffer, pH=7.4 at 25° C. The radioactivity collected on the filter is analyzed by liquid scintillation by adding 4 ml of liquid scintillant (Emulsifier Safe, Packard). All the experiments are carried out in triplicate.
The inhibition constants (Ki) of the products of the invention are estimated from the displacement experiments using the nonlinear regression program RADLIG version 4 from EBDA (Equilibrium Binding Data Analysis) (Biosoft, Cambridge, UK, McPherson, 1985). The dissociation constants of the radioactive ligands used in the calculations are […] for (^3H)8-OH-DPAT and 0.036 mmol for (^3H)YM-09151-2. The pKi (−logKi) values are given in the form of the mean±SEM of at least 3 experiments.

One may read the melting point as the temperature of the solid-liquid transition. Usually ED50 stands for the midpoint of the dose-response relation.

The molecule `O=C(c1ccc(F)c(Cl)c1)N1CCC(F)(CNCCc2ccccn2)CC1` (as salt: oxalate) [Example 1, (3-Chloro-4-fluorophenyl){4-fluoro-4-[(2-pyrid-2-ylethylamino)methyl]-l-piperidyl}methanone] yielded a melting point of 172 to 174 °C.
The molecule `O=C(c1ccc(Cl)c(Cl)c1)N1CCC(F)(CNCCc2ccccn2)CC1` (as salt: oxalate) [Example 2, (3,4-Dichlorophenyl){4-fluoro-4-[(2-pyrid-2-ylethylamino)methyl]-1-piperidyl}methanone] showed a melting point of 192 to 194 °C.
Turning to `O=C(c1ccc(Cl)c(Cl)c1)N1CCC(F)(CNCCc2ccccn2)CC1` [Example 2, (3,4-Dichlorophenyl){4-fluoro-4-[(2-pyrid-2-ylethylamino)methyl]-1-piperidyl}methanone], at 5-HT1A receptor [1], the ED50 stood at 0.31 mg/kg. In addition, on 5-HT1A receptor [2], the Ki is 0.38 nM and the “Selectivity 5-HT1A/D2” value is 1 318.
For `O=C(c1ccc(F)c(Cl)c1)N1CCC(F)(CNCCc2ccccn2)CC1` [Example 1, (3-Chloro-4-fluorophenyl){4-fluoro-4-[(2-pyrid-2-ylethylamino)methyl]-l-piperidyl}methanone] the same measures were 0.31 mg/kg, 0.155 nM and 4 266.
